From US12558366B2, “Bacterial DNA gyrase inhibitors and methods of use thereof” (THE FLORIDA INTERNATIONAL UNIVERSITY BOARD OF TRUSTEES, priority 2021, dated 2026)
≈ marks a conversion by molar mass, not a printed value. Like-named read-outs stand apart in the source and are kept apart here.

Experiments:
DNA = DNA binding, intercalation and photo-induced crosslinking
E. coli imp = test: microbe, parasite or virus in culture; format: cell-based; conditions: for MIC: Escherichia coli, read-out: Minimum Inhibitory Concentration E. coli imp
Experimental: (§1) Antibacterial minimum inhibitory concentrations (MICs) were obtained from three independent experiments using broth microdilution methods in 96-well plates according to Clinical and Laboratory Standards Institute guidelines. Cells were culture from singles colonies in MHIIB medium for 24 h at 37° C. in agitation (200 RPM). The cultures were then diluted using the same media to reach an OD600 of 0.1. Then, 50 μL of the diluted cultures were added to the plates holding 50 μL of serially diluted compounds in MHIIB. The plates were incubated at 37° C. for 20 h. The starting inoculum was fixated to 10^5 colony-forming units per ml.

Mtb = Mtb inhibition (antibacterial activity); format: cell-based, Mycobacterium tuberculosis; set-up: % Mtb inhibition: concentration or dose not given beside the values; conditions: for % Mtb inhibition: Table 5; for % inhibition (20 μM): Table 6
E. coli (ATCC 25922) = test: Minimum inhibitory concentration, E. coli; format: cell-based; conditions: for MIC: Escherichia coli, ATCC25922, read-out: Minimum Inhibitory Concentration E. coli
Experimental: as §1

B. subtilis (ATCC 6633) = test: Minimum inhibitory concentration, B. subtilis; format: cell-based; conditions: for MIC: Bacillus subtilis, ATCC6633, Tables 3a-3c
Experimental: as §1

E. coli DNA gyrase [1] = biological target: T1, E. coli DNA gyrase (Escherichia coli, UniProt P0AES4+P0AES6); test: Agarose gel-based DNA gyrase inhibition assays; format: biochemical
Experimental: 100 ng of DNA gyrase was used to supercoil the rx pAB1 in the presence of different concentrations of a gyrase inhibitor. […] Samples were analyzed by electrophoresis in 1% w/v agarose gels followed by ethidium bromide staining and photographed under UV light.

MRSA (ATCC BAA44) = test: microbe, parasite or virus in culture; format: cell-based, S. aureus; conditions: for MIC: Staphylococcus aureus, read-out: Minimum Inhibitory Concentration S. aureus MRSA
Experimental: as §1

S. aureus (ATCC 14775) = test: Minimum inhibitory concentration, S. aureus; format: cell-based; conditions: for MIC: Staphylococcus aureus
Experimental: as §1

Mtb DNA gyrase = Mtb DNA gyrase (Mycobacterium tuberculosis, UniProt P9WG45+P9WG47); test: Mtb DNA gyrase inhibition; format: biochemical
E. coli DNA gyrase [2] = biological target: T1, E. coli DNA gyrase; test: E. coli DNA gyrase inhibition (agarose gel-based and/or SDFQ-based, not specified per value); format: biochemical
J774 = test: Cytotoxicity in J774 cells; format: cell-based; conditions: for cytotoxicity: J774, 200 μM; for IC50: highest concentration 200 μM
HepG2 = test: Cytotoxicity in HepG2 cells; format: cell-based; conditions: for cytotoxicity: HepG2, 200 μM; for IC50: highest concentration 200 μM
[3] = ATCC14775, Tables 3a-3c, read-out: Minimum Inhibitory Concentration S. aureus
[4] = Table 2 values, read-out: IC50 ( ≤15 μM) IC50

T1 sequence (P0AES4 whole entry, one chain of several): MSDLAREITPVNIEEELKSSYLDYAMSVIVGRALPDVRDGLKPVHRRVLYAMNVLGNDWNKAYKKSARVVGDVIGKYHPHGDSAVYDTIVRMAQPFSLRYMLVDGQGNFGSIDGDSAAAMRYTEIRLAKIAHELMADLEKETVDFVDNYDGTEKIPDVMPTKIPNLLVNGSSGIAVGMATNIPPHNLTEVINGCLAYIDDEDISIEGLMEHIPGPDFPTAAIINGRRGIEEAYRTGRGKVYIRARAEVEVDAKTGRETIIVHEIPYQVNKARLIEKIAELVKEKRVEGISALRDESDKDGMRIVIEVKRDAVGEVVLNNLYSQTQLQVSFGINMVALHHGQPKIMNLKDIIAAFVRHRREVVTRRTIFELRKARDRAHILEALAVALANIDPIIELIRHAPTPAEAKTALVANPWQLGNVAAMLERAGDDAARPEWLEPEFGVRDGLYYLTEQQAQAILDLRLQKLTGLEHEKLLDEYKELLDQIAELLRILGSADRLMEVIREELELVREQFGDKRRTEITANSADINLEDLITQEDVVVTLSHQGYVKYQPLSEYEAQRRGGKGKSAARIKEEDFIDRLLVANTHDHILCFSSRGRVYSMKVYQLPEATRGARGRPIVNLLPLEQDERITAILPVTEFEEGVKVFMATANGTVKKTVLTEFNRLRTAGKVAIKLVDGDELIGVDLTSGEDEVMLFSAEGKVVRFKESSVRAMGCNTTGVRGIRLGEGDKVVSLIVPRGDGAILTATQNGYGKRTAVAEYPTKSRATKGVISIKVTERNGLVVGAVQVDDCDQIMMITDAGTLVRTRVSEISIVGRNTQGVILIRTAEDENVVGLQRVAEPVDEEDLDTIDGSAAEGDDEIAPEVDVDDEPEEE
Chain of Mtb DNA gyrase (P9WG45 whole entry): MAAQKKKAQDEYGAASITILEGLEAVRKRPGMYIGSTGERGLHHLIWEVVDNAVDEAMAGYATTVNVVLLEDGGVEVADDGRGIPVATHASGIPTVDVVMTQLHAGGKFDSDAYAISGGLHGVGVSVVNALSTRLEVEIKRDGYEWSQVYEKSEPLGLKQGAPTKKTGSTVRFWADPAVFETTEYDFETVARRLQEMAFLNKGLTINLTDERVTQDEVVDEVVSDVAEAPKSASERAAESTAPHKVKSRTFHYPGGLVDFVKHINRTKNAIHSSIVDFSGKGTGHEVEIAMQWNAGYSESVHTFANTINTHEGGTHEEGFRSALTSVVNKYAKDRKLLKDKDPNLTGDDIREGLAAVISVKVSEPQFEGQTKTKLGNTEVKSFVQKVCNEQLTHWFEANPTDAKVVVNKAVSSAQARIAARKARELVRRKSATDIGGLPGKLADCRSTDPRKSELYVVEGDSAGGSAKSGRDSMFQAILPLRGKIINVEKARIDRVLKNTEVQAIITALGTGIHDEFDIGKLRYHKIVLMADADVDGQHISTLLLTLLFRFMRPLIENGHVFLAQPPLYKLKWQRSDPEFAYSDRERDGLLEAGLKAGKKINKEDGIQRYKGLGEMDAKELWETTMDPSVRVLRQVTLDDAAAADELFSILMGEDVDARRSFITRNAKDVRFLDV
Chain of Mtb DNA gyrase (P9WG47 whole entry): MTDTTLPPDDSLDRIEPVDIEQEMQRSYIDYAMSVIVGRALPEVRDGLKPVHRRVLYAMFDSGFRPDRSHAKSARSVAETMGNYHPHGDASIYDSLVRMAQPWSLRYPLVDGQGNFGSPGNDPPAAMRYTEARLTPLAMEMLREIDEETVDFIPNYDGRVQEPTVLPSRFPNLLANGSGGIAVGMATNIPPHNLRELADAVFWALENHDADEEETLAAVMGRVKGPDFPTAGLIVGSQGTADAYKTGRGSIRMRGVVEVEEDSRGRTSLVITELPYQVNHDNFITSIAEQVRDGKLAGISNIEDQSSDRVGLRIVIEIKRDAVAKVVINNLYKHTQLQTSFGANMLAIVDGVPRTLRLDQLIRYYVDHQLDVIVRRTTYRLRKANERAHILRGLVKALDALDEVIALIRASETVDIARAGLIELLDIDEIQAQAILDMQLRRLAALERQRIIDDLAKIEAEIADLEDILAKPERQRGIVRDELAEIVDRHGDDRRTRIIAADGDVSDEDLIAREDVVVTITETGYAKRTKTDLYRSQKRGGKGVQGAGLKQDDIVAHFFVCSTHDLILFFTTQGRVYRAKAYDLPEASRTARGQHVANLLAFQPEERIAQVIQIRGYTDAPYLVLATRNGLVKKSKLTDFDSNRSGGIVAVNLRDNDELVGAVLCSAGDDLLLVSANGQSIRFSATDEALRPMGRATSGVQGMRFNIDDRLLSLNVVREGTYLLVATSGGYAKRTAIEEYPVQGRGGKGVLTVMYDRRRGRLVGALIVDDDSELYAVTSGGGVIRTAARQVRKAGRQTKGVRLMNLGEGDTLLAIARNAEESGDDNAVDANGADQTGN

## COc1ccc2c(c1)/c(=C\c1ccc(N(C)C)cc1)c1cc(-c3ccccc3)[n+](C)n12.O=S(=O)([O-])C(F)(F)F [Compound 237]
DNA
  DNA intercalator: DNA intercalators

## Cc1c(CC(=O)O)c(=O)oc2c(C)c3occ(-c4ccc(Br)cc4)c3cc12 [Compound 117]
E. coli imp
  MIC: > 200 µM
Mtb
  % Mtb inhibition: 24.7%
E. coli (ATCC 25922)
  MIC: > 200 µM
B. subtilis (ATCC 6633)
  MIC: > 200 µM

## O=C1Nc2ccc(Br)cc2C1=NNc1ccc(C(=O)O)cc1 [Compound 111]
E. coli DNA gyrase [1]; 50 μM of compounds
  inhibition of E. coli DNA gyrase activities: completely inhibited
B. subtilis (ATCC 6633)
  MIC: 100 µM (≈ 36 µg/mL)

## Biphenyl gallate
E. coli imp; Table 7
  MIC (μg/ml) E. coli imp: 36.43 µg/mL
MRSA (ATCC BAA44); Table 7
  MIC (μg/ml) S. aureus (MRSA) ATCC BAA44: 16 µg/mL
S. aureus (ATCC 14775); Table 7
  MIC (μg/ml) S. aureus ATCC 14775: 16 µg/mL
E. coli (ATCC 25922); Table 7
  MIC (μg/ml) E. coli ATCC 25922: 517.29 µg/mL
B. subtilis (ATCC 6633); Table 7
  MIC (μg/ml) B. subtilis ATCC 6633: 16 µg/mL

## Cc1c(CCC(=O)O)c(=O)oc2c(C)c3occ(-c4ccc(N5CCCC5)cc4)c3cc12 [Compound 125]
Mtb
  % Mtb inhibition: 10.2%
MRSA (ATCC BAA44)
  growth inhibition of MRSA: did not inhibit the growth
S. aureus (ATCC 14775)
  growth inhibition of S. aureus: did not inhibit the growth

## Cc1c(C)c2cc3c(-c4ccc(Br)cc4)coc3c(C)c2oc1=O [Compound 118]
Mtb
  % Mtb inhibition: 21.8%
Mtb DNA gyrase
  inhibition of Mtb DNA gyrase activities: All psoralen derivatives inhibited E. coli and Mtb DNA gyrase activities except compounds 118 and 122
MRSA (ATCC BAA44)
  MIC: 200 µM (≈ 76.6 µg/mL)
S. aureus (ATCC 14775); ATCC14775, read-out: Minimum Inhibitory Concentration S. aureus
  MIC: 200 µM (≈ 76.6 µg/mL)
E. coli DNA gyrase [2]
  inhibition of E. coli DNA gyrase activities: All psoralen derivatives inhibited E. coli and Mtb DNA gyrase activities except compounds 118 and 122

## CNC(=O)[C@H]1O[C@@H](n2cnc3c(NCc4ccc(N)cc4)ncnc32)[C@H](O)[C@@H]1O [AB-MECA, reference compound]
Mtb DNA gyrase
  inhibition of Mtb DNA gyrase activities: did not inhibit

## Cc1coc2cc3oc(=O)c(CCC(=O)O)c(C)c3cc12 [Compound 122]
Mtb
  % Mtb inhibition: 15.7%
Mtb DNA gyrase
  inhibition of Mtb DNA gyrase activities: All psoralen derivatives inhibited E. coli and Mtb DNA gyrase activities except compounds 118 and 122
MRSA (ATCC BAA44)
  MIC: 200 µM (≈ 57.3 µg/mL)
S. aureus (ATCC 14775); [3]
  MIC: 200 µM (≈ 57.3 µg/mL)
E. coli DNA gyrase [2]
  inhibition of E. coli DNA gyrase activities: All psoralen derivatives inhibited E. coli and Mtb DNA gyrase activities except compounds 118 and 122

## Cc1c(CCC(=O)O)c(=O)oc2c(C)c3occ(-c4ccc5ccccc5c4)c3cc12 [Compound 124]
E. coli imp
  MIC: > 200 µM
J774
  cytotoxicity: no cytotoxicity evident
Mtb
  activity against Mtb: most active for Mtb
HepG2
  cytotoxicity: no cytotoxicity evident
E. coli (ATCC 25922)
  MIC: > 200 µM

## CN(C)c1ccc2cc3ccc(N(C)C)cc3nc2c1 [Compound 249]
DNA
  DNA intercalator: DNA intercalators

## O=S(=O)(Cl)c1ccc(Oc2ccc(S(=O)(=O)Cl)cc2)cc1 [NSC212]
J774
  IC50: > 200 µM
Mtb
  % inhibition (20 μM): 84.6%
HepG2
  IC50: > 200 µM

## CN(C)CCNC(=O)c1cccc2nc3cccc(F)c3nc12.Cl [Compound 241]
DNA
  DNA intercalator: DNA intercalators

## Cc1c(CCC(=O)O)c(=O)oc2c(C)c3occ(-c4ccc(Cl)cc4)c3cc12 [Compound 120]
E. coli imp
  MIC: > 200 µM
Mtb
  % Mtb inhibition: 18.7%
E. coli (ATCC 25922)
  MIC: > 200 µM
B. subtilis (ATCC 6633)
  MIC: > 200 µM

## Nc1c2ccccc2nc2ccccc12 [Compound 247]
DNA
  DNA intercalator: DNA intercalators

## CCOC(=O)c1cc2c(=Cc3ccc(N(C)C)cc3)c3ccccc3n2[n+]1C.O=S(=O)([O-])C(F)(F)F [Compound 239]
DNA
  DNA intercalator: DNA intercalators

## Cc1c(CCC(=O)O)c(=O)oc2c(C)c3occ(-c4ccc(-c5ccccc5)cc4)c3cc12 [Compound 119]
E. coli imp
  MIC: > 200 µM
J774
  cytotoxicity: no cytotoxicity evident
Mtb
  activity against Mtb: most active for Mtb
HepG2
  cytotoxicity: no cytotoxicity evident
E. coli (ATCC 25922)
  MIC: > 200 µM
B. subtilis (ATCC 6633)
  MIC: > 200 µM

## Cc1c(CCC(=O)O)c(=O)oc2c(C)c3occ(-c4ccccc4)c3cc12 [Compound 121]
E. coli imp
  MIC: 100 µM (≈ 36.2 µg/mL)
Mtb
  % Mtb inhibition: 36.7%
E. coli (ATCC 25922)
  MIC: > 200 µM
E. coli DNA gyrase [1]; 50 μM of compounds
  inhibition of E. coli DNA gyrase activities: completely inhibited

## Cc1cc(C)c2c(c1)C(=NNc1ccc(C(=O)O)cc1)C(O)=N2 [Compound 9, 4-[2-(5,7-Dimethyl-2-oxoindol-3-yl)hydrazinyl]benzoic acid]
MRSA (ATCC BAA44)
  growth inhibition of MRSA: strongly inhibited the growth
S. aureus (ATCC 14775)
  growth inhibition of S. aureus: strongly inhibited the growth
E. coli DNA gyrase [2]; [4]
  IC50: 1.69 µM

## CCOc1ccc2nc3cc(N)ccc3c(N)c2c1 [Compound 257]
DNA
  DNA intercalator: DNA intercalators

## CSC1SC2C(=O)N(C)C(C(C)C)C(=O)OCC(NC(=O)c3cnc4ccccc4n3)C(=O)NC(C)C(=O)N(C)C1C(=O)N(C)C(C(C)C)C(=O)OCC(NC(=O)c1cnc3ccccc3n1)C(=O)NC(C)C(=O)N2C (stereo not shown) [Compound 258]
DNA
  DNA intercalator: DNA intercalators

## Nc1ccc2cc3ccc(N)cc3nc2c1 [Compound 246]
DNA
  DNA intercalator: DNA intercalators

## Sc1cccc2c(S)cccc12 [NSC229]
J774
  IC50: > 200 µM
Mtb
  % inhibition (20 μM): 99.3%
HepG2
  IC50: > 200 µM

## NN=C1c2ccccc2C(=O)C1C(=O)C(c1ccccc1)c1ccccc1 (stereo not shown) [Compound 211]
E. coli DNA gyrase [1]; 50 μM of compounds
  inhibition of E. coli DNA gyrase activities: inhibited
E. coli DNA gyrase [1]; 200 μM of compounds
  inhibition of E. coli DNA gyrase activities: completely inhibited
E. coli DNA gyrase [2]
  IC50: 50 to 200 µM

## Cc1c(CCC(=O)O)c(=O)oc2cc3occ(-c4ccc(Cl)cc4)c3cc12 [Compound 25]
E. coli imp
  MIC: 25 µM (≈ 9.57 µg/mL)
Mtb
  % Mtb inhibition: 0.8%
B. subtilis (ATCC 6633)
  MIC: 25 µM (≈ 9.57 µg/mL)
E. coli DNA gyrase [2]; [4]
  IC50: 10.6 µM

## COc1cccc2nc3c(C(=O)NCCN(C)C)cccc3cc12.Cl [Compound 240]
DNA
  DNA intercalator: DNA intercalators

## O=C(Nc1cccc(C2=NCCN2)c1)Nc1cccc(C2=NCCN2)c1 [Compound 79]
E. coli imp
  MIC: 50 µM (≈ 17.4 µg/mL)
E. coli DNA gyrase [1]; 200 μM of compounds
  inhibition of E. coli DNA gyrase activities: completely inhibited

## mithramycin [Compound 225, reference compound]
E. coli DNA gyrase [1]; 50 μM of compounds
  inhibition of E. coli DNA gyrase activities: completely inhibited
E. coli DNA gyrase [1]; 200 μM of compounds
  inhibition of E. coli DNA gyrase activities: completely inhibited
E. coli DNA gyrase [2]
  inhibition of E. coli DNA gyrase activities: strongly inhibited

## Cc1c(CCC(=O)O)c(=O)oc2c(C)c3occ(-c4ccc(F)cc4)c3cc12 [Compound 123]
E. coli imp
  MIC: > 200 µM
Mtb
  % Mtb inhibition: 31.8%
E. coli (ATCC 25922)
  MIC: > 200 µM

## Brc1ccc2c(c1)-c1ccccc1C1=NCCN12 [Compound 217]
DNA
  DNA intercalator: DNA intercalators

## CN(C)c1ccc(/C=c2\c3ccccc3n3c2cc(-c2ccccc2)[n+]3C)cc1 [Compound 236]
DNA
  DNA intercalator: DNA intercalator

## CN1/C(=C/c2cc[n+](C)c3ccccc23)Sc2ccccc21.Cc1ccc(S(=O)(=O)[O-])cc1 [Compound 248]
DNA
  DNA intercalator: DNA intercalators

## Cc1cc(NN=Cc2ccc([N+](=O)[O-])o2)nc2ccccc12 [Compound 134]
MRSA (ATCC BAA44)
  MIC: 200 µM (≈ 59.3 µg/mL)
S. aureus (ATCC 14775); [3]
  MIC: 200 µM (≈ 59.3 µg/mL)
